From US9521846B2, “Template-fixed peptidomimetics with antimicrobial activity” (priority 2006, dated 2016)
≈ marks a conversion by molar mass, not a printed value. Non-standard residues stand in square brackets, D forms with d. Residues, ends and D or L forms follow the SMILES beside them. hSer = N[C@@H](CCO)C(=O)O; Dab = NCC[C@H](N)C(=O)O

Key:
P. aeruginosa ATCC 27853 = type: cell-based, Pseudomonas aeruginosa; conditions: ATCC 27853
In short: (§1)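 Peptides were serially diluted two-fold in MH broth containing 0.02% BSA and combined 1:1 with bacterial suspension adjusted to roughly 10^6 CFU/ml, following a modified NCCLS microdilution protocol.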

[1] = system: Pseudomonas aeruginosa IMP 1 Livermore 3140; type: cell-based; conditions: IMP 1 Livermore 3140
In short: as §1

[2] = system: Pseudomonas aeruginosa P1021903; type: cell-based; conditions: P1021903
In short: as §1

[3] = system: Pseudomonas aeruginosa P1021913; type: cell-based; conditions: P1021913
In short: as §1

[4] = system: Pseudomonas aeruginosa P8191900; type: cell-based; conditions: P8191900
In short: as §1

HELA cells (Acc57) = test: Cytotoxicity assay, MTT reduction (LC 50, GI 50); type: cell-based
In short: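 Read-out was MTT reduction (A595) after 48 h peptide exposure (12.5–50 μM, triplicates) of HeLa cells plated at 7.0×10^3/well and precultured 24 h. Growth % was normalised to a time-zero reading. Linear trend interpolation gave the concentration at −50% growth (LC50) and at 50% growth (GI50).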

[5] = system: human red blood cells (hRBC); test: Hemolysis; type: cell-based; conditions: 100
[6] = Plasma stability, human plasma; type: in vitro ADME
[7] = Plasma stability, rat plasma; type: in vitro ADME

Row | SMILES | MIC P. aeruginosa ATCC 27853 (P. aeruginosa ATCC 27853) | MIC P. aeruginosa IMP1 Livermore 3140 [1] | MIC P. aeruginosa P1021903 [2] | MIC P. aeruginosa P1021913 [3] | MIC P. aeruginosa P8191900 [4] | Cytotoxicity GI50 Hela cells (HELA cells (Acc57)) | Hemolysis at 100 μg/ml [5] | Stability human Plasma t1/2 [6] | Stability rat Plasma t1/2 [7] | Average MIC (P. aeruginosa)
1 | CC[C@H](C)[C@@H]1NC(=O)[C@H](Cc2c[nH]c3ccccc23)NC(=O)[C@H]([C@@H](C)O)NC(=O)[C@@H]2CCCN2C(=O)[C@H]2CCCN2C(=O)[C@H](CCN)NC(=O)[C@H]([C@@H](C)O)NC(=O)[C@H](CCN)NC(=O)[C@H](CCN)NC(=O)[C@H](Cc2c[nH]c3ccccc23)NC(=O)[C@H](CCN)NC(=O)[C@H](CCN)NC(=O)[C@H](CCCCN)NC(=O)[C@H](CCN)NC1=O [Example 16] (cyclo(TWI[Dab]K[Dab][Dab]W[Dab][Dab]T[Dab][dP]P)) | 0.05 µg/mL (≈ 0.031 µM) | 0.24 µg/mL (≈ 0.149 µM) | 0.05 µg/mL (≈ 0.031 µM) | 0.10 µg/mL (≈ 0.0621 µM) | 0.09 µg/mL (≈ 0.0559 µM) | 50 µM | 0.1% | 5 h | 5 h | 0.11 µg/mL
2 | CC(C)[C@@H]1NC(=O)[C@H](Cc2c[nH]c3ccccc23)NC(=O)[C@H]([C@@H](C)O)NC(=O)[C@@H]2CCCN2C(=O)[C@H]2CCCN2C(=O)[C@H](CCN)NC(=O)[C@H](C)NC(=O)[C@H](CCN)NC(=O)[C@H](CCN)NC(=O)[C@H](Cc2c[nH]c3ccccc23)NC(=O)[C@H](CCN)NC(=O)[C@H](CCN)NC(=O)[C@H](CCCCN)NC(=O)[C@H](CCN)NC1=O [Example 32] (cyclo(TWV[Dab]K[Dab][Dab]W[Dab][Dab]A[Dab][dP]P)) | 0.02 µg/mL (≈ 0.0128 µM) | 0.22 µg/mL (≈ 0.14 µM) | 0.05 µg/mL (≈ 0.0319 µM) | 0.10 µg/mL (≈ 0.0638 µM) | 0.05 µg/mL (≈ 0.0319 µM) | 50 µM | 0% | 5 h | 5 h | 0.09 µg/mL
3 | CC[C@H](C)[C@@H]1NC(=O)[C@H](Cc2c[nH]c3ccccc23)NC(=O)[C@H]([C@@H](C)O)NC(=O)[C@@H]2CCCN2C(=O)[C@H]2CCCN2C(=O)[C@H](CCN)NC(=O)[C@H](CCO)NC(=O)[C@H](CCN)NC(=O)[C@H](CCN)NC(=O)[C@H](Cc2c[nH]c3ccccc23)NC(=O)[C@H](CCN)NC(=O)[C@H](CCN)NC(=O)[C@H](CCCCN)NC(=O)[C@H](CCN)NC1=O [Example 35] (cyclo(TWI[Dab]K[Dab][Dab]W[Dab][Dab][hSer][Dab][dP]P)) | 0.05 µg/mL (≈ 0.031 µM) | 0.31 µg/mL (≈ 0.192 µM) | 0.10 µg/mL (≈ 0.0621 µM) | 0.24 µg/mL (≈ 0.149 µM) | 0.22 µg/mL (≈ 0.137 µM) | 48 µM | 0.2% | 5 h | 5 h | 0.18 µg/mL
4 | CC[C@H](C)[C@@H]1NC(=O)[C@H](Cc2c[nH]c3ccccc23)NC(=O)[C@H](C)NC(=O)[C@@H]2CCCN2C(=O)[C@H]2CCCN2C(=O)[C@H](CCN)NC(=O)[C@H](C)NC(=O)[C@H](CCN)NC(=O)[C@H](CCN)NC(=O)[C@H](Cc2c[nH]c3ccccc23)NC(=O)[C@H](CCN)NC(=O)[C@H](CCN)NC(=O)[C@H](CCCCN)NC(=O)[C@H](CCN)NC1=O [Example 22] (cyclo(AWI[Dab]K[Dab][Dab]W[Dab][Dab]A[Dab][dP]P)) | 0.02 µg/mL (≈ 0.0129 µM) | 0.24 µg/mL (≈ 0.155 µM) | 0.09 µg/mL (≈ 0.058 µM) | 0.16 µg/mL (≈ 0.103 µM) | 0.09 µg/mL (≈ 0.058 µM) | 50 µM | 0.2% | 5 h | 5 h | 0.12 µg/mL
5 | CC[C@H](C)[C@@H]1NC(=O)[C@H](Cc2c[nH]c3ccccc23)NC(=O)[C@H]([C@@H](C)O)NC(=O)[C@@H]2CCCN2C(=O)[C@H]2CCCN2C(=O)[C@H](CCN)NC(=O)[C@H](C)NC(=O)[C@H](CCN)NC(=O)[C@H](CCN)NC(=O)[C@H](Cc2c[nH]c3ccccc23)NC(=O)[C@H](CCN)NC(=O)[C@H](CCCCN)NC(=O)[C@H](CCCCN)NC(=O)[C@H](CCN)NC1=O [Example 25] (cyclo(TWI[Dab]KK[Dab]W[Dab][Dab]A[Dab][dP]P)) | 0.05 µg/mL (≈ 0.0311 µM) | 0.24 µg/mL (≈ 0.149 µM) | 0.05 µg/mL (≈ 0.0311 µM) | 0.13 µg/mL (≈ 0.0808 µM) | 0.10 µg/mL (≈ 0.0622 µM) | 50 µM | 0.1% | 5 h | 5 h | 0.11 µg/mL
